Experimental data reported in US20160346255A1, “METHODS, AGENTS AND COMPOSITIONS FOR TREATMENT OF INFLAMMATORY CONDITIONS” (Betanien Hospital, priority 2014, published 2016).
Where two headings read alike, the source gives them in different places. Non-standard residues stand in square brackets, D forms with d. Residues, ends and D or L forms follow the SMILES beside them. d(hArg(Et2)) = CCN=C(NCC)NCCCC[C@@H](N)C(=O)O; hArg(Et2) = CCN=C(NCC)NCCCC[C@H](N)C(=O)O; dPhe(4-Cl) = N[C@H](Cc1ccc(Cl)cc1)C(=O)O; d2Nal = N[C@H](Cc1ccc2ccccc2c1)C(=O)O; dCit = NC(=O)NCCC[C@@H](N)C(=O)O; d3Pal = N[C@H](Cc1cccnc1)C(=O)O

Columns and labels:
[1] = system: Patient with Spondyloarthritis; test: Spondyloarthritis patient treated with oral relugolix; type: in vivo, human; conditions: 400 mg daily; at 12 weeks, remission; baseline 5
Description: • person with spondyloarthritis with disease duration of 5 years.
• Is offered experimental GnRH antagonist therapy, relugolix 400 mg daily for 12 weeks.
• Disease activity in ankylosing spondylitis/spondyloarthritis is measured by the BASDAI score. His BASDAI is 5 at baseline.

[2] = system: Patient with Ankylosing Spondylitis; test: Ankylosing spondylitis patient treated with degarelix (and earlier TNF inhibitors); type: in vivo, human; conditions: ankylosing spondylitis patient
From the text: Example of Treating a Patient with Ankylosing Spondylitis with a GnRH Antagonist
Diagnosed with ankylosing spondylitis in 1984, HLAB27 positive, with repeated iridocyclitis. Used non-steroidal anti-inflammatory drugs previously. They were offered the TNFα inhibitor Golilimumab in 2010. Their disease activity score was 8.9 in October 2010 (see below for explanation of disease activity score) on initiating Golilimumab; by the June 2012 this score had reduced to 6.6, but by May 2013 the effect had worn off and their score was 7.6. May 2013, they initiated Enbrel treatment, but their disease activity increased from 7.6 to 8.3. Due to their poor response to TNFα therapy, they were offered the GnRH antagonist degarelix in September 2014.
Disease activity in ankylosing spondylitis is measured by the BASDAI (Bath Ankylosing Spondylitis Disease Activity Index (1)), which has been extensively validated in clinical trials, 2, 3 and is one of the most commonly used outcome measures in clinical trials. This is a composite index that evaluates fatigue, axial and peripheral pain, stiffness and enthesopathy. Their BASDAI was at 8.7 at baseline. In September 2014 they received their first dose of degarelix 240 mg s.c. By 2 weeks, their BASDAI had reduced to 6.8, and by 6 weeks it had reduced to 5.8. This is the lowest BASDAI score they have ever had since we first started using this method of assessment 4 years ago in 2010. Their morning stiffness lasted 4 hours at baseline, by 6 weeks their morning stiffness had reduced to 2 hours. They had their second dose of degarelix 80 mg s.c in October 2014. Lumbar flexion and maximum arm abduction were increased after 6 weeks of treatment.
Response to therapy in clinical practice is defined as improvement of 2 units or 50% on a 0-10 scale of the BASDAI, and expert opinion that the treatment should be continued. Their reduction by 6 weeks was 2.9 units, and 7.1 units with an 82% BASDAI score improvement by 9 weeks, and we shall continue treatment. A BASDAI 50% improvement is defined as a major clinical response. […] For comparison, approximately 50-60% of patients achieve a BASDAI 50 by 12 weeks on TNF inhibitors (4). Their ESR has decreased from 46 mm to 23 mm, which is their lowest ESR reading in 19 years. […] By 9 weeks of GnRH antagonist therapy, their kidney function has normalized, and fasting glucose reduced from 7.4 to 6.5 mmol/L. By 3 months, the effect on their ankylosing spondylitis remained, creatinine was at 98 μmol/L, with a glomerular filtration rate of 66 ml/min/1.73 m^2 in December 2014.

Patient with Lupus = test: Lupus patient treated with degarelix (and earlier therapies); type: in vivo, human; conditions: for Reducing the pain in their extremities / Side effects: previous therapy
Description: Example of Treating a Patient with Lupus with a GnRH Antagonist
Due to their painful condition, they have been followed up by a pain clinic. They were offered a tricyclic antidepressant, amitriptyline 25 mg in March 2014 for their painful condition.
Therefore, we decided to offer […] degarelix. GnRH antagonists have shown anti-inflammatory effects and therefore we considered that degarelix, a depot GnRH antagonist, may have a therapeutic effect in lupus. 09.15.14, […] received […] loading dose of degarelix, 240 mg s.c.
They received their second dose of degarelix in October 2014, 80 mg s.c. They continue on 80 mg s.c. every two weeks.

[3] = system: patients with psoriasis who were taking lithium; conditions: 15 patients, after 10 weeks, cited from earlier work
[4] = system: systemic sclerosis patients; conditions: over 12 months; increased from 7; cited from earlier work
patients with IBD = conditions: week 2 after an infusion; cited from earlier work
[5] = system: Patient with Rheumatoid Arthritis; test: Rheumatoid arthritis patient treated with cetrorelix; type: in vivo, human; conditions: at 12 weeks
Description: (§1) • person with seropositive rheumatoid arthritis with disease duration of 10 years. • Fulfilled ACR 2010 classification criteria for rheumatoid arthritis.
• Had tried all therapies available previously without effect. • Offered experimental GnRH antagonist therapy, cetrorelix in 0.5 mg s.c. daily in October 2014, then 0.75 mg s.c. daily in December 2014.

[6] = system: Patient with Osteoarthritis; test: Intra-articular cetrorelix in a patient with osteoarthritis; type: in vivo, human; conditions: 1 mg injected into both knees; 2 week post injection
Description: • person with osteoarthritis of both knees diagnosed by X-ray 10 years ago. • Has had synovitis secondary to osteoarthritis in both knees for the last month, confirmed by synovitis on ultrasound. • In order to treat the secondary inflammation as a result of their knee osteoarthritis, they are offered intra-articular GnRH antagonist treatment, for example cetrorelix 1 mg injected into both knees. Subcutaneous cetrorelix for injection can be used. • Before and 2 week post injection ultrasound images are taken to show a decrease in synovitis in the knee joint.

[7] = system: patients with active longstanding RA; conditions: 5 days of treatment; Kass et al. 2014; cited from earlier work
[8] = system: patients with active longstanding RA; test: Double-blinded randomised study of cetrorelix in active longstanding RA (NCT00667758, AGRA); type: in vivo, human; conditions: preceding the P1NP reduction at day 10
From the text: The manuscript by Kass et al., 2014 Scand. J. Rheumatol., 43 (1), 22-27, describes a short term study of a GnRH antagonist, Cetrorelix (AGRA study). This is the first human study of GnRH antagonist treatment in an inflammatory disease. […] However, some patients did show some response and the response was thought to be limited to patients with above normal levels of LH and FSH (Abstract to the 13th annual American College of Rheumatology meeting). […] However, current TNFα inhibiting therapy in rheumatoid arthritis is long term. […] There are several examples in medicine that give positive immediate effects in disease but are unsuitable for long term use, either due to lack of efficacy, safety or both.
In this double-blinded, single-site study in Norway (ClinicalTrials.gov NCT00667758), 99 patients with active longstanding RA, were randomised to predefined intention-to-treat populations using computer-generated allocation (1:1) in dynamic blocks stratified for sex. Patients were assigned to subcutaneous cetrorelix (n=48) (5 mg days 1-2, 3 mg days 3-5) or placebo (n=51). P1NP was measured on day 10. We investigated serum P1NP between groups, a predefined secondary endpoint. Detailed efficacy and safety data are presented separately.

mice = test: Mouse study of preventing age related inflammation with cetrorelix; type: in vivo; conditions: 0.5 mg/kg daily with or without gonadal hormone replacement
Description: An animal study is conducted with 40 fertile female mice aged approximately 6-20 months in a control group (group 1) receiving placebo, 40 age and sex matched mice receiving a drug that reduces the activity of GnRH (group 2), such as cetrorelix 0.5 mg/kg daily, and 40 age and sex matched mice receiving the same GnRH inhibitor as group 2, but with the additional replacement of gonadal hormone (oestrogen) to age adjusted pre-chosen levels. All mice are followed prospectively, and evaluated for systemic inflammation markers, atherosclerosis, osteoporosis, LDL, and age at death. The same three interventions and assessments are carried out in three groups of male mice with 40 male mice in each group, aged approximately 6-20 months, replacing the gonadal hormone testosterone to pre-chosen levels in group 3. Mice treated with a drug that reduces the activity of GnRH, such as cetrorelix 0.5 mg/kg daily with or without the replacement of gonadal hormone (preferably with) reach a higher age at death compared with mice in the placebo groups. These mice also show less atherosclerosis, osteoporosis and systemic inflammation than mice in the placebo groups.

Patient with Tendonitis = test: Tendonitis patient treated with ganirelix injection; type: in vivo, human; conditions: 1.5 mg injected around the affected tendon; 2 week post injection
Description: • person diagnosed with tendonitis of the elbow with ultrasound confirming tendonitis.
• Treated with an injection of GnRH antagonist, ganirelix 1.5 mg, around the affected tendon.
• Before and 2 week post injection ultrasound images are taken to show a decrease in tendonitis of the elbow. […] Such injections may be administered over the long-term, for example every 3 months to maintain optimal effect.

[9] = system: Patient with Rheumatoid Arthritis; test: Rheumatoid arthritis patient treated with ganirelix; type: in vivo, human; conditions: at 4 months
Description: as §1
• Had tried almost all available rheumatoid arthritis therapies available previously without effect. • Offered experimental GnRH antagonist therapy, ganirelix 0.75 mg s.c. daily (0.25 mg s.c. three times a day).
• Disease activity score (DAS) reduction from 5.5 to 2.2 (remission). • A DAS reduction of 0.6 units is defined as a clinical response to treatment (1). • […] ESR decreased from 28 mm to 19 mm, with a normalization of their CRP from 23 mg/L to 5 mg/L. This is supported by the decrease in their anti-cyclic citrullinated peptide (CCP) antibodies from 27 μ/mL to 14 μ/mL.

Compound: CONC(=O)Nc1ccc(-c2sc3c(c2CN(C)C)c(=O)n(-c2ccc(OC)nn2)c(=O)n3Cc2c(F)cccc2F)cc1 [relugolix]
- BASDAI [1]: 1.2

Compound: Enbrel
- Disease activity score (BASDAI) ([2]; treatment initiated May 2013 at 7.6): 8.3

Compound: CC(C)C[C@H](CN)CC(=O)O [pregabalin]
- Effect on pain (Patient with Lupus; up to 150 mg×2): no effect

Compound: CN(C)CCC=C1c2ccccc2CCc2ccccc21 [amitriptyline]
- Effect on pain (Patient with Lupus; 25 mg, March 2014): no effect
- Effect on pain (Patient with Lupus; 50 mg, April 2014): no effect
- Effect on pain (Patient with Lupus; 150 mg daily): no effect

Compound: O[C@H]1[C@H](O)[C@@H](O)[C@H](O)[C@@H](O)[C@H]1O [inositol]
- Median PASI score reduction [3]: 35%
- Median PASI score reduction ([3]; median pretreatment PASI 4.9): 1.7 points

Compound: CN(Cc1cnc2nc(N)nc(N)c2n1)c1ccc(C(=O)N[C@@H](CCC(=O)O)C(=O)O)cc1 [methotrexate]
- Reducing the pain in their extremities (Patient with Lupus): not effective
- Side effects (Patient with Lupus): intolerable side effects such as mouth ulcers

Compound: Golilimumab: TNFα inhibitor Golilimumab
- Disease activity score (BASDAI) ([2]; June 2012, 8.9 on initiating in October 2010): 6.6
- Disease activity score (BASDAI) ([2]; May 2013, effect had worn off): 7.6

Compound: O=P1(N(CCCl)CCCl)NCCCO1 (stereo not shown) [cyclophosphamide]
- Digital ulcers, average number [4]: 9 ulcers

Compound: infliximab: anti-TNFα monoclonal antibody
- Fecal calprotectin concentration (patients with IBD): decreases significantly

Compound: COc1c(C)c2c(c(O)c1C/C=C(\C)CCC(=O)OCCN1CCOCC1)C(=O)OC2 [mycophenolate mofetil]
- Reducing the pain in their extremities (Patient with Lupus): not effective
- Side effects (Patient with Lupus): intolerable side effects such as mouth ulcers

Compound: CC(=O)N[C@H](Cc1ccc2ccccc2c1)C(=O)N[C@H](Cc1ccc(Cl)cc1)C(=O)N[C@H](Cc1cccnc1)C(=O)N[C@@H](CO)C(=O)N[C@@H](Cc1ccc(O)cc1)C(=O)N[C@H](CCCNC(N)=O)C(=O)N[C@@H](CC(C)C)C(=O)N[C@@H](CCCNC(=N)N)C(=O)N1CCC[C@H]1C(=O)N[C@H](C)C(N)=O [cetrorelix] (Ac-[d2Nal][dPhe(4-Cl)][d3Pal]SY[dCit]LRP[dA]-NH2)
- Disease activity score (DAS) ([5]; 0.5 then 0.75 mg s.c. daily, from 6.1): 5.5
- CRP ([5]; from 41 mg/L): 18 mg/L
- Rheumatoid factor ([5]; from 137 kIU/L): 111 kIU/L
- ESR ([5]; normalized from 35 mm): 28 mm
- Synovitis in the knee joint on ultrasound [6]: decrease
- Primary end-point with regard to clinical response [7]: did not meet the primary end-point
- TNFα [7]: possible reduction
- Disease activity markers and TNF-α (log pg/mL) [8]: significant reductions
- Age at death vs placebo groups (mice): higher
- Atherosclerosis vs placebo groups (mice): less
- Osteoporosis vs placebo groups (mice): less
- Systemic inflammation vs placebo groups (mice): less

Compound: NCC1(CC(=O)O)CCCCC1 [gabapentin]
- Effect on pain (Patient with Lupus; 100 mg×3 up to 1200 mg×3): no effect

Compound: Cn1cnc([N+](=O)[O-])c1Sc1ncnc2nc[nH]c12 [azathioprine]
- Reducing the pain in their extremities (Patient with Lupus): not effective
- Side effects (Patient with Lupus): intolerable side effects such as mouth ulcers

Compound: CCN=C(NCC)NCCCC[C@H](NC(=O)[C@H](CC(C)C)NC(=O)[C@@H](CCCCNC(=NCC)NCC)NC(=O)[C@H](Cc1ccc(O)cc1)NC(=O)[C@H](CO)NC(=O)[C@@H](Cc1cccnc1)NC(=O)[C@@H](Cc1ccc(Cl)cc1)NC(=O)[C@@H](Cc1ccc2ccccc2c1)NC(C)=O)C(=O)N1CCC[C@H]1C(=O)N[C@H](C)C(N)=O [ganirelix] (Ac-[d2Nal][dPhe(4-Cl)][d3Pal]SY[d(hArg(Et2))]L[hArg(Et2)]P[dA]-NH2)
- Tendonitis of the elbow on ultrasound (Patient with Tendonitis): decrease
- Disease activity score (DAS) ([9]; 0.75 mg s.c. daily, remission, from 5.5): 2.2
- Anti-cyclic citrullinated peptide (CCP) antibodies ([9]; from 27 μ/mL): 14 μ/mL
- ESR ([9]; from 28 mm): 19 mm
- Rheumatoid factor ([9]; from 113 kIU/L): 75 kIU/L
- CRP ([9]; normalization from 23 mg/L): 5 mg/L
